Experimental data as given in PMC4598832 (Scientific Reports, 2015).
Substitutions are numbered along the chain they refer to. Where “and” joins values, the source holds several entries; their conditions need not be identical. Equal values may be shown once. Entries after “also recorded” stand apart in the source; their conditions may differ. Read-outs that look alike come from different tables or passages of the source.

Assays:
Olfr73 S113A = molecular target: T1, Olfr73 S113A (Mus musculus, UniProt Q920P2, S113A); test: cAMP reporter gene (SEAP) assay, Olfr73 S113A in Hana3A cells; type: cell-based
T1 construct: Rho (rhodopsin) tag; expressed in transfected cells; host or cells: Hana 3A cells
T1 sequence (Q920P2 1-313 S113A): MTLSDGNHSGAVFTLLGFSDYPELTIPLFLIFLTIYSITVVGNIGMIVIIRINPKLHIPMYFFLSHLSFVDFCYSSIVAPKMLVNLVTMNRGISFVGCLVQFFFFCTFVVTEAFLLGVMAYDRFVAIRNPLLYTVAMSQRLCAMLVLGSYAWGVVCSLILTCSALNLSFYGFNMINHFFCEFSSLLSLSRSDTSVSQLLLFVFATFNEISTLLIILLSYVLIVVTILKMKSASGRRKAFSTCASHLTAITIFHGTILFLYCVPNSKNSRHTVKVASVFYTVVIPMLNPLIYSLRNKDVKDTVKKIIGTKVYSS

Olfr73 Y260F = molecular target: T2, Olfr73 Y260F (Mus musculus, UniProt Q920P2, Y260F); test: cAMP reporter gene (SEAP) assay, Olfr73 Y260F in Hana3A cells; type: cell-based
T2 construct: Rho (rhodopsin) tag; Myc; expressed in transfected cells; host or cells: Hana 3A cells
T2 sequence (Q920P2 1-313 Y260F): T1 sequence (Q920P2 1-313 S113A) with A113S, Y260F
Method: Confluent Hana 3A cells (35000 cells per well) cultured in a 96-well plate at 37 °C (Perkin-Elmer) were transfected with 0.15 μg of wild-type or mutated Olfr73 or Olfr74 encoding plasmid DNAs and 0.15 μg of the cAMP response element secreted alkaline phosphatase reporter plasmid (pCRE-SEAP) using Lipofectamine 2000 (Invitrogen). Cells were induced 8 h after transfection with cell medium containing the ligand, or cell medium alone. […] Experiments were carried out in triplicates and in parallel with a mock control (cells transfected with non-coding plasmid DNA).

Olfr73 S113A-E208A-Y260F = molecular target: T3, Olfr73 S113A-E208A-Y260F (Mus musculus, UniProt Q920P2, E208A/S113A/Y260F); test: cAMP reporter gene (SEAP) assay, Olfr73 triple mutant in Hana3A cells; type: cell-based
T3 construct: Rho (rhodopsin) tag; Myc; expressed in transfected cells; host or cells: Hana 3A cells
T3 sequence (Q920P2 1-313 S113A/E208A/Y260F): T1 sequence (Q920P2 1-313 S113A) with E208A, Y260F

Olfr74 (mOR-EV) wt = molecular target: T4, Olfr74 (mOR-EV) wt (Mus musculus, UniProt Q920P1); test: cAMP reporter gene (SEAP) assay, Olfr74 wild type in Hana3A cells; type: cell-based; conditions: for activation of Olfr74 wild type: result in words
T4 sequence (Q920P1 1-318): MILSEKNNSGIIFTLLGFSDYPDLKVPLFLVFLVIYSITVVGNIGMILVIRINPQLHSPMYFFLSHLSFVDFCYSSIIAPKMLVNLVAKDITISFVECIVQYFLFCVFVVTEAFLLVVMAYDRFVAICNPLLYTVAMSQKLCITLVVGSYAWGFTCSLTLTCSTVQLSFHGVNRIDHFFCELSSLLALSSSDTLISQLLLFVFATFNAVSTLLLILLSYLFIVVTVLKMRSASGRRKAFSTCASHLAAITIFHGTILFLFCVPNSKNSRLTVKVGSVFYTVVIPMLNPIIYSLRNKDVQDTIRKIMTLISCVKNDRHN

Olfr73 E208A = molecular target: T5, Olfr73 E208A (Mus musculus, UniProt Q920P2, E208A); test: cAMP reporter gene (SEAP) assay, Olfr73 E208A in Hana3A cells; type: cell-based
T5 construct: Rho (rhodopsin) tag; Myc; expressed in transfected cells; host or cells: Hana 3A cells
T5 sequence (Q920P2 1-313 E208A): T1 sequence (Q920P2 1-313 S113A) with A113S, E208A

Olfr74 F260Y = Olfr74 F260Y (Mus musculus, UniProt Q920P1, F260Y); test: cAMP reporter gene (SEAP) assay, Olfr74 F260Y in Hana3A cells; type: cell-based
Sequence of Olfr74 F260Y (Q920P1 entry or part of it F260Y): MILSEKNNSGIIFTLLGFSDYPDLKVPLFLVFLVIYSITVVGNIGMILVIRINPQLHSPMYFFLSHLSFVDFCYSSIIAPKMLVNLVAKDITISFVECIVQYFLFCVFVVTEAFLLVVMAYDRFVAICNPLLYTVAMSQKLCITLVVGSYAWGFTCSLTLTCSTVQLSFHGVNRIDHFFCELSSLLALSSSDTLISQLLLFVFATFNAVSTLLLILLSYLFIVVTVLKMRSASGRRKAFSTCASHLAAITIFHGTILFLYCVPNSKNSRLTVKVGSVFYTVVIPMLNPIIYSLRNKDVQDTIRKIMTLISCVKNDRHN
Method: (§1) Confluent Hana 3A cells (35000 cells per well) cultured in a 96-well plate at 37 °C (Perkin-Elmer) were transfected with 0.15 μg of wild-type or mutated Olfr73 or Olfr74 encoding plasmid DNAs and 0.15 μg of the cAMP response element secreted alkaline phosphatase reporter plasmid (pCRE-SEAP) using Lipofectamine 2000 (Invitrogen). Cells were induced 8 h after transfection with cell medium containing the ligand, or cell medium alone. For screening compound library, stock solutions of odorants (0.2–1 M) were prepared from pure compounds either in dimethyl sulfoxide (DMSO, Sigma-Aldrich, Buchs, CH) or ethanol and were stored at −20 °C. Mixtures of 5 to 10 odorants prepared form stock solutions, were diluted in serum-free DMEM and applied to the cells 8 hours after transfection (<100 μM, final individual odorant concentration). Experiments were carried out in triplicates and in parallel with a mock control (cells transfected with non-coding plasmid DNA). A relative SEAP activity [(n-1) times mock level] was calculated for each odorant mixture and those that induced an activity larger than 1 were considered for further analysis.
(§2) For odorant dose-dependent measurements of cAMP signaling specific ligands were added at increasing concentrations and measured in duplicates. Odorant-induced responses were measured using the SEAP activity reporter assay 16 h after stimulation. An aliquot of supernatant from each well was then mixed with an equal volume of 1 M diethanolamine bicarbonate (pH 9.8) containing 20 mM p-nitrophenyl phosphate and 1 mM MgCl2 (Sigma). The kinetics of hydrolysis of p-nitrophenol phosphate by alkaline phosphatase was determined by measuring the absorbance at 410 nm using a multiwell plate reader (SpectraMax 360, Molecular Devices). To remove SEAP activity background noise from the measurements, the mean value of mock control SEAP activity (Supplementary Figures 8 and 9) was subtracted from the mean value of OR-induced SEAP activity for each odorant concentration. Dose response curves and EC50 values were then determined by fitting these points with the Hill equation using IGOR Pro software (WaveMetrics, Portland, OR, USA). Statistical significance of the differences in EC50 values was analyzed using a two-tailed Student’s t test. p values below 0.05 were considered as being significant.

Olfr73 (mOR-EG) wt = molecular target: T6, Olfr73 (mOR-EG) wt (Mus musculus, UniProt Q920P2); test: cAMP reporter gene (SEAP) assay, Olfr73 wild type in Hana3A cells; type: cell-based
T6 construct: Rho (rhodopsin) tag; Myc; Flag; expressed in transfected cells; host or cells: Hana 3A cells
T6 sequence (Q920P2 1-313): T1 sequence (Q920P2 1-313 S113A) with A113S

Olfr74 A113S = Olfr74 A113S (Mus musculus, UniProt Q920P1, A113S); test: cAMP reporter gene (SEAP) assay, Olfr74 A113S in Hana3A cells; type: cell-based
Sequence of Olfr74 A113S (Q920P1 entry or part of it A113S): as the sequence (Q920P1 entry or part of it F260Y) above, with A113S, Y260F counted along it
Method: as §1
as §2, with “To remove SEAP activity background noise from the measurements, the mean value of mock control SEAP activity (Supplementary Figures 8 and 9) was subtracted from the mean value of OR-induced SEAP activity for each odorant concentration.” left out

Olfr74 A113S-A208E-F260Y = test: cAMP reporter gene (SEAP) assay, Olfr74 triple mutant in Hana3A cells; type: cell-based, mouse; conditions: result in words
Method: as §1, with “Mixtures of 5 to 10 odorants prepared form stock solutions, were diluted in serum-free DMEM and applied to the cells 8 hours after transfection (<100 μM, final individual odorant concentration). Experiments were carried out in triplicates and in parallel with a mock control (cells transfected with non-coding plasmid DNA).” left out
For odorant dose-dependent measurements of cAMP signaling specific ligands were added at increasing concentrations and measured in duplicates. Odorant-induced responses were measured using the SEAP activity reporter assay 16 h after stimulation. […] The kinetics of hydrolysis of p-nitrophenol phosphate by alkaline phosphatase was determined by measuring the absorbance at 410 nm using a multiwell plate reader (SpectraMax 360, Molecular Devices). […]

Olfr74 = tested on: Olfr74; parameters: method as in PMID 12767924; conditions: HEK cells ref 31; cited from earlier work
[1] = read-out: EC50 Olfr73 S113A, dash in Table 1 = no measurable response
[2] = dash in Table 1 = no measurable response, read-out: EC50 Olfr73 Y260F
[3] = read-out: EC50 Olfr73 S113A-E208A-Y260F, dash in Table 1 = no measurable response
[4] = EC50 Olfr73 E208A, Hana3A cells, SEAP reporter
[5] = EC50 Olfr74 F260Y, Hana3A cells, SEAP reporter
[6] = Hana3A cells, SEAP reporter, dash in Table 1 = no measurable response, read-out: EC50 Olfr73 wt
[7] = dash in Table 1 = no measurable response, read-out: EC50 Olfr73 S113A
[8] = dash in Table 1 = no measurable response, read-out: EC50 Olfr73 S113A-E208A-Y260F
[9] = Hana3A cells, SEAP reporter, read-out: EC50 Olfr73 E208A
[10] = Hana3A cells, SEAP reporter, read-out: EC50 Olfr74 wt
[11] = rounded values derived from Fig. 2 and Supplementary Fig. 4, unit inferred, read-out: EC50 Olfr74 (WT), Supplementary Table 1
[12] = EC50 Olfr73 (E208A), Supplementary Table 1, rounded values derived from Fig. 2 and Supplementary Fig. 4, unit inferred
[13] = EC50 Olfr74 (F260Y), Supplementary Table 1, rounded values derived from Fig. 2 and Supplementary Fig. 4, unit inferred
[14] = rounded values derived from Fig. 2 and Supplementary Fig. 4, unit inferred, read-out: EC50 Olfr73 (WT), Supplementary Table 1
[15] = EC50 Olfr73 wt, Hana3A cells, SEAP reporter, dash in Table 1 = no measurable response

Structure (SMILES)	EC50 (Olfr73 S113A; [1])	EC50 (Olfr73 Y260F; [2])	EC50 (Olfr73 S113A-E208A-Y260F; [3])	activation of Olfr74 wild type (Olfr74 (mOR-EV) wt; Hana3A cells, SEAP reporter)	EC50 (Olfr73 E208A; [4])	EC50 (Olfr74 F260Y; [5])	EC50 (Olfr73 (mOR-EG) wt; [6])	EC50 (Olfr73 S113A; [7])	EC50 (Olfr73 S113A-E208A-Y260F; [8])	EC50 (Olfr73 E208A; [9])	EC50 (Olfr74 (mOR-EV) wt; [10])	EC50 (Olfr74 (mOR-EV) wt; [11])	EC50 (Olfr73 E208A; [12])	EC50 (Olfr74 F260Y; [13])	EC50 (Olfr74 A113S)	EC50 (Olfr73 (mOR-EG) wt; [14])	EC50 (Olfr73 (mOR-EG) wt; [15])	other results
C/C=C/c1ccc(OC)c(OC)c1 [MIEG, methyl isoeugenol]	> 100 µM	> 100 µM	> 100 µM	do not activate	10 ± 5 µM	406 ± 23 µM	131 ± 19 µM	–	–	–	–	–	–	–	–	–	–	–
COC(=O)c1ccc(O)c(OC)c1 [Methyl vanillate, methyl vanillate]	–	> 100 µM	–	do not activate	–	447 ± 36 µM	240 µM and 241 µM	> 100 µM	> 100 µM	347 ± 32 µM	–	–	–	–	–	–	–	–
CCC=CCC1=C(C)CCC1=O [Jasmone, 3-methyl-2-(pent-2-enyl)-cyclopent-2-enone]	–	–	–	–	66 ± 9 µM	8 µM and ~10 µM	–	–	–	–	28 µM and ~30 µM	30 µM	70 µM	10 µM	71 µM and ~70 µM	> 100 µM	–	EC50 (Olfr73 S113A; EC50 Olfr73 S113A, dash in Table 1 = no measurable response): > 100 µM; EC50 (Olfr73 S113A-E208A-Y260F; EC50 Olfr73 S113A-E208A-Y260F, dash in Table 1 = no measurable response): 83 ± 11 µM; activation of Olfr73 wild type (Olfr73 (mOR-EG) wt; Hana3A cells, SEAP reporter, result in words): inactive
C=C(C)[C@@H]1CCC2=CC(=O)C[C@@H](C)[C@]2(C)C1 [Nootkatone, nootkatone]	> 100 µM	–	> 100 µM	–	277 ± 54 µM	35 µM and ~40 µM	–	–	–	–	86 µM and ~90 µM	90 µM	> 100 µM	40 µM	78 µM and ~80 µM	–	225 ± 76 µM	EC50 (Olfr73 Y260F; read-out: EC50 Olfr73 Y260F, dash in Table 1 = no measurable response): > 100 µM; EC50 (Olfr73 (mOR-EG) wt; EC50 Olfr73 (WT), Supplementary Table 1, rounded values derived from Fig. 2 and Supplementary Fig. 4, unit inferred): > 100 µM
CC(C)=CC1CC(C)CCO1 (centres unmarked) [Rose Oxide, rose oxide]	–	–	–	–	–	42 µM and ~40 µM	35 ± 20 µM	23 ± 24 µM	> 100 µM	~10 µM and 10 µM	155 ± 21 µM	> 100 µM	–	40 µM	> 100 µM	30 µM	–	activation of Olfr74 triple mutant (A113S, A208E, F260Y) (Olfr74 A113S-A208E-F260Y): no detectable activation
CCOc1cc(C=O)ccc1O [Ethyl vanillin, ethyl vanillin]	–	–	–	–	–	171 ± 35 µM	–	202 ± 44 µM	> 100 µM	147 ± 11 µM	–	–	–	–	–	–	35 ± 4 µM	cAMP signalling upon stimulation of Olfr74 (Olfr74): no cAMP signalling; activation of Olfr74 wild type (Olfr74 (mOR-EV) wt; Hana3A cells, SEAP reporter, listed as ethyl vanillin): no detectable activation; activation of Olfr74 wild type (Olfr74 (mOR-EV) wt; Hana3A cells, SEAP reporter, listed as ethyl-vanillin): no response was detected; also recorded: do not activate
